According to PubChem BioAssay AID248 (DTP/NCI, 2004):
“And” between values parts separate entries of the source, which are not always exact repeats. Identical values can stand only once. Inconclusive results and toxic doses are left out. Cut-off read from the data, not from the text of the source: active = T/C of 150% or more; inactive = T/C below 125%.

System: L1210 leukemia ip in BDF1 mice, survival T/C
Assay: NCI In Vivo Anticancer Drug Screen. Data for tumor model L1210 Leukemia (intraperitoneal) in B6D2F1 (BDF1) mice
Details: endpoint: mean survival time, higher = longer survival
In short: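 Transplantable tumor model; survival measured in treated vs vehicle control mice. Value = treated/control.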

[1] = dose: 25.0 mg/kg/injection, schedule: Q01DX009 (ip), vehicle: Klucel (hydroxypropylcellulose) (HPC)
[2] = dose: 50.0 mg/kg/injection, schedule: Q01DX009 (ip), vehicle: Klucel (hydroxypropylcellulose) (HPC)
[3] = dose: 100.0 mg/kg/injection, schedule: Q01DX009 (ip), vehicle: Klucel (hydroxypropylcellulose) (HPC)
[4] = dose: 200.0 mg/kg/injection, schedule: Q01DX009 (ip), vehicle: Klucel (hydroxypropylcellulose) (HPC)

Measured: T/C

NNc1ccc2ccccc2n1
inactive: dose: 5.0 mg/kg/injection, schedule: Q01DX009 (ip), vehicle: saline 95 % of control | dose: 5.0 mg/kg/injection, schedule: Q04DX003 (ip), vehicle: saline with Tween-80 113 % of control | dose: 10.0 mg/kg/injection, schedule: Q01DX009 (ip), vehicle: saline 97 % of control | dose: 10.0 mg/kg/injection, schedule: Q04DX003 (ip), vehicle: saline with Tween-80 101 % of control | dose: 20.0 mg/kg/injection, schedule: Q01DX009 (ip), vehicle: saline 97 % of control | dose: 20.0 mg/kg/injection, schedule: Q04DX003 (ip), vehicle: saline with Tween-80 101 % of control

S=C=NC1CCC(CC2CCCCC2)CC1 (centres undefined)
inactive: [1] 105 % of control | [2] 94 % of control | [3] 93 % of control and 96 % of control | dose: 100.0 mg/kg/injection, schedule: Q04DX003 (ip), vehicle: Klucel (hydroxypropylcellulose) (HPC) 98 % of control | dose: 200.0 mg/kg/injection, schedule: Q04DX003 (ip), vehicle: Klucel (hydroxypropylcellulose) (HPC) 101 % of control | dose: 400.0 mg/kg/injection, schedule: Q04DX003 (ip), vehicle: Klucel (hydroxypropylcellulose) (HPC) 103 % of control

COc1ccc(C(=O)N/N=C/c2ccco2)cc1
inactive: [3] 100 % of control | [4] 86 % of control

CSc1ccc(NC(=O)Nc2cc(C(C)C)ccc2C)cc1
inactive: [3] 103 % of control | [4] 104 % of control | dose: 400.0 mg/kg/injection, schedule: Q01DX009 (ip), vehicle: Klucel (hydroxypropylcellulose) (HPC) 98 % of control

CCC1(C)N=C(C)C(C)S1 (centres undefined)
inactive: dose: 100.0 mg/kg/injection, schedule: Q04DX003 (ip), vehicle: saline with Tween-80 111 % of control | dose: 200.0 mg/kg/injection, schedule: Q04DX003 (ip), vehicle: saline with Tween-80 100 % of control | dose: 400.0 mg/kg/injection, schedule: Q04DX003 (ip), vehicle: saline with Tween-80 100 % of control

CCN(CC)CCCC#N
inactive: dose: 50.0 mg/kg/injection, schedule: Q01DX001 (ip), vehicle: saline 100 % of control | dose: 100.0 mg/kg/injection, schedule: Q01DX001 (ip), vehicle: saline 105 % of control | dose: 200.0 mg/kg/injection, schedule: Q01DX001 (ip), vehicle: saline 102 % of control

O=C(OC(=O)C1CC1)C1CC1
inactive: dose: 12.5 mg/kg/injection, schedule: Q01DX009 (ip), vehicle: saline 96 % of control | dose: 25.0 mg/kg/injection, schedule: Q01DX009 (ip), vehicle: saline 92 % of control | dose: 25.0 mg/kg/injection, schedule: Q04DX003 (ip), vehicle: saline 90 % of control | dose: 50.0 mg/kg/injection, schedule: Q01DX009 (ip), vehicle: saline 96 % of control and 111 % of control | dose: 50.0 mg/kg/injection, schedule: Q04DX003 (ip), vehicle: saline 88 % of control | dose: 100.0 mg/kg/injection, schedule: Q04DX003 (ip), vehicle: saline 96 % of control and 101 % of control

S=C(Nc1ccc(Cl)cc1)NC1CC2C=CC1C2 (centres undefined)
inactive: dose: 100.0 mg/kg/injection, schedule: Q04DX002 (ip), vehicle: saline with Tween-80 101 % of control | dose: 200.0 mg/kg/injection, schedule: Q04DX002 (ip), vehicle: saline with Tween-80 93 % of control

NNS(=O)(=O)c1ccc([N+](=O)[O-])cc1
inactive: dose: 12.5 mg/kg/injection, schedule: Q01DX009 (ip), vehicle: Klucel (hydroxypropylcellulose) (HPC) 109 % of control | [1] 106 % of control | [2] 101 % of control
